Test [1] addresses OXA-48 (Klebsiella pneumoniae, UniProt Q6XEC0). In words: Inhibition of purified class D carbapenemase OXA-48 (Ki, carbapenem substrates). In kind it is biochemical.
Test [2] addresses T1, purified class A, C and D enzymes (UniProt Q9F663).
T1 construct: rows headed: Ki (KPC-2, NCF); other: purified KPC-2; nitrocefin reporter substrate
Format: biochemical. The following applies: read-out: Ki (KPC-2, NCF); purified KPC-2; nitrocefin reporter substrate.

For test [3], the target named is T2, purified class A, C and D enzymes (UniProt P0AD64, L31Q/G234S/E235K, species not given).
T2 construct: Ki (SHV-12, NCF); other: purified SHV-12; nitrocefin reporter substrate
T2 sequence (P0AD64 1-286 L31Q/G234S/E235K): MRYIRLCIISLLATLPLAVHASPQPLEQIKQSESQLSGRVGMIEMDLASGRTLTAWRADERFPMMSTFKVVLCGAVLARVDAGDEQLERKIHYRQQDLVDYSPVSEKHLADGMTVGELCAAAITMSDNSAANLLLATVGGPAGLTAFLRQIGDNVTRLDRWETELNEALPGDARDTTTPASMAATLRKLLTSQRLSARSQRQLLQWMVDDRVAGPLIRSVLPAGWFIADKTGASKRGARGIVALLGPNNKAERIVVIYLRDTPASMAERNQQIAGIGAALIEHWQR
Format: biochemical. The following applies: read-out: Ki (SHV-12, NCF); purified SHV-12; nitrocefin reporter substrate.

The target of test [4] is T3, purified class A, C and D enzymes (UniProt Q6XEC0).
T3 construct: rows headed: Ki (OXA-48, NCF); other: purified OXA-48; nitrocefin reporter substrate
Format: biochemical. The following applies: read-out: Ki (OXA-48, NCF); purified OXA-48; nitrocefin reporter substrate.

Test [5] deals with T4, NDM-1 (Klebsiella pneumoniae, UniProt C7C422). In words: biochemical.
T4 sequence (C7C422 29-270, looked up, species assumed): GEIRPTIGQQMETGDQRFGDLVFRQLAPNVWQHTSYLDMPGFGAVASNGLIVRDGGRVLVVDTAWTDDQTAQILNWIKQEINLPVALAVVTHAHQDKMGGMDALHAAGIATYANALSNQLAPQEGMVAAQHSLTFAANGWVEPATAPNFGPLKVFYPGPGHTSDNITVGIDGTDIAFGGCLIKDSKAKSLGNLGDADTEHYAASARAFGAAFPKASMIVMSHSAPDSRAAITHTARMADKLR
The target of test [6] is T5, VIM-1 (Pseudomonas aeruginosa, UniProt A0A0F7KYQ8).
T5 construct: made in house; host or cells: ECM6711 strain carrying pUCP24-VIM-1 plasmid; culture supernatant used unpurified
Put plainly: biochemical. The following applies: cleavage of nitrocefin (200 uM) by VIM-1 supernatant.

For test [7], the target named is T4, NDM-1. Put plainly: Inhibition of purified class B carbapenemase NDM-1 (Ki, imipenem substrate). The following applies: NDM-1, substrate imipenem; read-out: Ki NDM-1, Imipenem. Format: biochemical.
In test [8] the target is KPC-2 (Klebsiella pneumoniae, UniProt Q9F663). In words: Inhibition of purified class A carbapenemase KPC-2 (Ki, carbapenem substrates). Format: biochemical.
Chain of KPC-2 (Q9F663 25-293 limits assumed): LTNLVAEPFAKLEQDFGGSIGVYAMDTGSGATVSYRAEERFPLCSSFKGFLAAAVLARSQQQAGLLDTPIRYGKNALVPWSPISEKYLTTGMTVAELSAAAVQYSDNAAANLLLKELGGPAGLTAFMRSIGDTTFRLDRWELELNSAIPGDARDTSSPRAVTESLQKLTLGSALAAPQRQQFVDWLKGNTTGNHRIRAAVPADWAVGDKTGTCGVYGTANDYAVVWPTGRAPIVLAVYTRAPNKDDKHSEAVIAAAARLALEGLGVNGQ
The subject of test [9] is strains of Enterobacteriaceae overexpressing various carbapenemases (class A and B). Put plainly: organism not typed. In kind it is cell-based. From the text:
Several strains simultaneously expressing both class A and class B carbapenemases, which were constructed using conjugation, were also included in the panel.

In test [10] the test system is strains of Enterobacteriaceae producing various carbapenemases (class A, D and B; 169 strains). In words: Meropenem or tebipenem potentiation by Compounds 97 or 62 (MIC). In kind it is cell-based. As to conditions: Compound 97 at a fixed concentration of 8 μg/ml. The protocol: The largest panel of clinical isolates expressing class A, D and B carbapenemases alone or in combination with other beta-lactamases (169 strains) was used to evaluate carbapenem potentiation activity of Compounds 97 and 62. MIC for meropenem and tebipenem of these strains were determined either alone or in the presence of Compounds 97 or 62, respectively, at a fixed concentration of 8 μg/ml in the growth media.

Test [11] concerns the target purified class A, C and D enzymes (Escherichia coli, UniProt Q9L5C7). In kind it is biochemical. The following applies: purified CTX-M-14; nitrocefin reporter substrate.
The target in test [12] is purified class A, C and D enzymes (Enterobacter cloacae, UniProt P05364). Format: biochemical. As to conditions: purified P99/AmpC of ECL; nitrocefin reporter substrate.
Chain of purified class A, C and D enzymes (Enterobacter cloacae, UniProt P05364) (P05364 21-381): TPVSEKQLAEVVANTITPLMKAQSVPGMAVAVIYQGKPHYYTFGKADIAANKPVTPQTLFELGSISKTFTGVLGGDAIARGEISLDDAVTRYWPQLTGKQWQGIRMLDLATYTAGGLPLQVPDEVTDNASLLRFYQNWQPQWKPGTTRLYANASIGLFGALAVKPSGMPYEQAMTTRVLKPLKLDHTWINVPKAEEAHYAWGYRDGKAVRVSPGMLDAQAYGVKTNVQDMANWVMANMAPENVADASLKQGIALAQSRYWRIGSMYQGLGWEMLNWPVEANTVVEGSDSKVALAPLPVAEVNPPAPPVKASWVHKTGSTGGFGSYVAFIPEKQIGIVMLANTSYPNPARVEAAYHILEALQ
Where [13] appears, read: purified OXA-48, substrate biapenem, read-out: Ki OXA-48, Biapenem.
[14] abbreviates: cleavage of imipenem (100 uM) by NDM-1, read-out: Ki, Imipenem.
Setting [15] is: cleavage of biapenem by OXA-48, read-out: Ki, Biapenem.
Where [16] appears, read: cleavage of imipenem by OXA-48, read-out: Ki, Imipenem.
Where [17] appears, read: cleavage of meropenem by OXA-48, read-out: Ki, Meropenem.
Setting [18] is: cleavage of tebipenem by OXA-48, read-out: Ki, Tebipenem.
The mark [19] stands for this setting: cleavage of biapenem (100 uM) by NDM-1, read-out: Ki, Biapenem.
Setting [20] is: cleavage of meropenem (100 uM) by NDM-1, read-out: Ki, Meropenem.

The source of these data is patent US10206937B2, “Boronic acid derivatives and therapeutic uses thereof” (Qpex Biopharma, Inc., priority 2014, dated 2019).

Like-named read-outs stand apart in the source and are kept apart here.

Chain of OXA-48 (Q6XEC0 23-265, looked up): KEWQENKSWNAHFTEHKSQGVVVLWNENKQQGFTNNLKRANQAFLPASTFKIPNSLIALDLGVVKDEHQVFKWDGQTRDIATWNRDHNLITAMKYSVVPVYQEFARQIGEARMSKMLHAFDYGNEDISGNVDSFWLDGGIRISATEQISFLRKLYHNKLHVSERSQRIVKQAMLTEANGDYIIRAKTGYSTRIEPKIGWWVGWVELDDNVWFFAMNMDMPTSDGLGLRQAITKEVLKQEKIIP
Chain of purified class A, C and D enzymes (Escherichia coli, UniProt Q9L5C7) (Q9L5C7 entry or part of it): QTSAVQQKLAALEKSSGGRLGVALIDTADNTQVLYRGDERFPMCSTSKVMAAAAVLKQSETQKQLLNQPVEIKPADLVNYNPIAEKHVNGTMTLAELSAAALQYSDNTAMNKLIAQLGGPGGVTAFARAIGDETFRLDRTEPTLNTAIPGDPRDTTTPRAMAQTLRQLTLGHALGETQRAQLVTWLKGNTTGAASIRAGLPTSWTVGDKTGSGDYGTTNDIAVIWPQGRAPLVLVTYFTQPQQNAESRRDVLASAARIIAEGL

Usually Ki stands for a measure of affinity in units of concentration, obtained from inhibition or displacement. As a reminder, the IC50 is the point on the concentration scale where inhibition reaches its midpoint. With `CS[C@H]1Cc2cccc(C(=O)O)c2OB1O` [Compound 16, (R)-2-hydroxy-3-(methylthio)-3,4-dihydro-2H-benzo[e][1,2]oxaborinine-8-carboxylic acid], the Ki was less than 10 nM in test [1] (setting [13]); less than 100 nM in test [2]; 100 to 1000 nM in [3]; less than 100 nM in [4]; less than 10 nM in [5] (setting [14]). This compound had an IC50 in test [6] of less than 1000 nM.
As to `Nc1nnc(S[C@H]2Cc3ccc(F)c(C(=O)O)c3OB2O)s1` [Compound 23, (R)-3-(5-amino-1,3,4-thiadiazol-2-ylthio)-7-fluoro-2-hydroxy-3,4-dihydro-2H-benzo[e][1,2]oxaborinine-8-carboxylic acid], the Ki in test [1] (setting [15]) was less than 10 nM; in test [1] (cleavage of doripenem by OXA-48, read-out: Ki, Doripenem), less than 10 nM; in test [1] (setting [16]), less than 10 nM; in test [1] (setting [17]), less than 10 nM; in test [1] (setting [18]) it was less than 10 nM; in test [2] it was less than 100 nM. Besides, the inhibition constant (Ki) in [3] was less than 100 nM; in test [4] it was less than 100 nM; in [7] it was 10 to 100 nM; in test [5] (setting [14]) it was 10 to 100 nM; in [8] (cleavage of biapenem by KPC-2, read-out: Ki, Biapenem), less than 10 nM; in test [8] (cleavage of doripenem by KPC-2, read-out: Ki, Doripenem) it was less than 10 nM. For the same compound, the Ki in test [8] (cleavage of imipenem by KPC-2, read-out: Ki, Imipenem) is 10 to 100 nM; in test [8] (cleavage of meropenem by KPC-2, read-out: Ki, Meropenem), less than 10 nM; in test [8] (cleavage of tebipenem by KPC-2, read-out: Ki, Tebipenem) it was less than 10 nM. In test [6], this compound returned an IC50 not below 1000 nM.
With `O=C(O)c1cccc2c1OB(O)[C@@H](OC1CNC1)C2` [Compound 18, (R)-3-(azetidin-3-yloxy)-2-hydroxy-3,4-dihydro-2H-benzo[e][1,2]oxaborinine-8-carboxylic acid], the inhibitory constant (Ki) in test [1] (setting [13]) was less than 10 nM; in test [2], 100 to 1000 nM; in [3], less than 100 nM; in [4], less than 100 nM; in [7], 10 to 100 nM; in test [5] (setting [19]), less than 10 nM. In addition, the figures for the Ki in [5] (setting [14]) and in test [5] (setting [20]) were 10 to 100 nM and less than 10 nM, respectively. The compound also yielded an IC50 in test [6] not below 1000 nM.
Take `Nn1cnnc1S[C@H]1Cc2cccc(C(=O)O)c2OB1O` [Compound 14, (R)-3-(4-amino-4H-1,2,4-triazol-3-ylthio)-2-hydroxy-3,4-dihydro-2H-benzo[e][1,2]oxaborinine-8-carboxylic acid]: the Ki in test [1] (setting [15]) was 10 to 100 nM; in test [1] (setting [16]) it was 10 to 100 nM; in test [1] (setting [17]), more than 100 nM; in test [1] (setting [18]), more than 100 nM; in test [3] it was less than 100 nM; in [4] it was less than 100 nM. Further, the inhibition constant (Ki) in test [5] (setting [19]), in [5] (setting [14]) and in test [5] (setting [20]) was less than 10 nM in each case. Also, in test [9], the “carbapenem MIC (imipenem, meropenem)” value is listed as “significantly reduced”. This compound also had an IC50 in [6] of less than 1000 nM.
Take `COc1ccc2c(c1C(=O)O)OB(O)[C@@H](Sc1nnc(NCCN)s1)C2` [Compound 97, (3R)-3-[[5-(2-aminoethylamino)-1,3,4-thiadiazol-2-yl]sulfanyl]-2-hydroxy-7-methoxy-3,4-dihydro-1,2-benzoxaborinine-8-carboxylic acid]: the “meropenem MIC” value in test [10] is “significantly reduced”. The inhibition constant Ki was 100 to 1000 nM in test [2]; less than 100 nM in test [3]; less than 100 nM in test [4]; less than 10 nM in test [7]; less than 10 nM in [5] (setting [14]). Besides, in [11], the “Ki (CTX-M-14, NCF)” value was “X (Less than 0.1 μM)”. For the same compound, in test [12], the “Ki (P99/AmpC of ECL, NCF)” value is given as “Y (0.1 μM to 1 μM)”. For the same compound, in [6], the concentration for half-maximal inhibition (IC50) was less than 1000 nM.
